Read-outs that look alike come from different tables or passages of the source.
How the values were obtained:
SERT [1] = biological target: T1, SERT (Rattus norvegicus, UniProt P31652); experiment: In vivo competitive binding: drug pretreatment before [125I]IDAM; conditions: 2 mg/kg i.v. 5 min prior to tracer; 60 min after tracer
Experimental: Experiments were performed using groups of 3-4 animals per study. […] The reduction of regional specific binding in the drug-pretreated rats was compared to the control animals with saline pretreatment.

SERT [2] = biological target: T1, SERT; experiment: Competition binding with [125I]IDAM in rat frontal cortical homogenate; set-up: The frontal cortex of rat brain were dissected and homogenized in 30 volumes of buffer; from tissue; host or cells: rat frontal cortex membrane homogenates (male Sprague-Dawley rats, control and PCA-lesioned)
Experimental: The homogenates were centrifuged at 20,000 g for 20 min. The resulting pellets were then re-suspended and recentrifuged. The final pellets were suspended in the same buffer and used for in vitro binding assays.
Various inhibitors were serially diluted with the buffer containing 0.1% BSA to overcome the stickiness and loss due to dilution. […] Incubation was carried out for 60 min at room temperature and then terminated by separation of bound from free radioligand by filtration through glass fiber filters (Schleicher & Schuell No. 25, Keene, N.H.) presoaked with 1% polyethylenimine. The filters were then washed three times with 3 ml of ice-cold […] Tris buffer and counted in a gamma counter (Packard 5000) with 70% efficiency. To study the effect of […], the homogenates were prepared in a sodium-free 50 mM Tris-HCl/5 mM KCl buffer.

[3] = biological target: T2, serotonin transporter (SERT) expressed in LLC-PK1 cells (Rattus norvegicus, UniProt P31652); experiment: [125I]IPT competition binding, LLC-SERT membrane homogenates
T2 construct: host or cells: LLC-PK1 (LLC-SERT)
T2 sequence (P31652 whole entry): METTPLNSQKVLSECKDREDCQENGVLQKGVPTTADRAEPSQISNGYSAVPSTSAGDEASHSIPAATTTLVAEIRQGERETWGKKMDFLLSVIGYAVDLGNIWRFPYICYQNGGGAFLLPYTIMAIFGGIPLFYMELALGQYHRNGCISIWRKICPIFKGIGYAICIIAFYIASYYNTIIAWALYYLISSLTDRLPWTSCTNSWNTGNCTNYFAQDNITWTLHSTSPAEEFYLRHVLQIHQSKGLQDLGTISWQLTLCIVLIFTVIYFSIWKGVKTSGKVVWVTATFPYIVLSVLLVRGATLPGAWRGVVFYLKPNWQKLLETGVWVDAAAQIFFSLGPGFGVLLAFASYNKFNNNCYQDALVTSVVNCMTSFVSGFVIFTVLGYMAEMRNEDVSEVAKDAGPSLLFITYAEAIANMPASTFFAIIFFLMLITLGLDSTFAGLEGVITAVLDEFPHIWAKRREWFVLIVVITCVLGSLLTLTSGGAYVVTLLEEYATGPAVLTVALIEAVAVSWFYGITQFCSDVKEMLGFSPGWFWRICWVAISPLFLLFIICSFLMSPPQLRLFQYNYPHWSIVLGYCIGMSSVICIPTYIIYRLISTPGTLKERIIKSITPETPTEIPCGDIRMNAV
Description: (§1) Three monoamine transporters expressed respectively in a common parental cell line, LLC-PK, (referred to as LLC-DAT. LLC-NET and LLC-SERT) were kindly provided by Dr. G. Rudnick of Yale University.

[4] = Biodistribution in rats after i.v. injection of radioactive tracer; format: in vivo, rat
Experimental: Three or four rats per group were used for each biodistribution study. While under ether anesthesia, 0.2 ml of a saline solution containing 10 μCi of radioactive tracer was injected into the femoral vein. The rats were sacrificed at the time indicated by cardiac excision while under ether anesthesia. Organs of interest were removed and weighed, and the radioactivity was counted using a Packard automatic gamma counter (Model 5000). The percent dose per organ was calculated by a comparison of the tissue counts to counts of 1% of the initial dose (100 times diluted aliquots of the injected material) measured at the same time.
Regional brain distribution in rats was measured after an i.v. injection of the radioactive tracer. Samples from different brain regions [cortex (CX), striatum (ST), hippocampus (HP), cerebellum (CB) and hypothalamus (HY)] were dissected, weighed and counted. The percentage dose/g of each sample was calculated by comparing sample counts with the counts of the diluted initial dose described above. The ratio of specific binding (SB) in each region was obtained by dividing the difference of each region from the cerebellum (percentage dose/g) with that of the cerebellum [(region-CB)/CB].

[5] = biological target: T3, dopamine transporter (DAT) expressed in LLC-PK1 cells (Rattus norvegicus, UniProt P23977); experiment: [125I]IPT competition binding, LLC-DAT membrane homogenates
T3 construct: host or cells: LLC-PK1 (LLC-DAT)
T3 sequence (P23977 whole entry): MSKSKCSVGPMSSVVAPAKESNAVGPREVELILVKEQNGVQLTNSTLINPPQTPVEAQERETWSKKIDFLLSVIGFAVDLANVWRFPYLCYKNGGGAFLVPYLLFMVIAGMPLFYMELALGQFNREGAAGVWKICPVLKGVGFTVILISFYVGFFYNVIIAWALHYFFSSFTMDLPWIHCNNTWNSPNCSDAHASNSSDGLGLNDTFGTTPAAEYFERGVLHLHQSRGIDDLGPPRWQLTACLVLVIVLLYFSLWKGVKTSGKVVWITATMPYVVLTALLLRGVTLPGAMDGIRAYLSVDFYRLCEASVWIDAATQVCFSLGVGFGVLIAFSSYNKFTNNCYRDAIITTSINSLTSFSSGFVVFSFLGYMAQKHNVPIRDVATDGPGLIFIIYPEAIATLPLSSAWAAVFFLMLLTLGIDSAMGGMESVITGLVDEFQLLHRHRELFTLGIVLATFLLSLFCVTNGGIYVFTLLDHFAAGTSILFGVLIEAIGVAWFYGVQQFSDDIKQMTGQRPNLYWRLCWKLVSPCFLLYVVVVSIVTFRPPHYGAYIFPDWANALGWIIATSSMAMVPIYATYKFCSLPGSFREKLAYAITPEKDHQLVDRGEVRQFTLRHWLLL
Description: as §1

[6] = biological target: T4, norepinephrine transporter (NET) expressed in LLC-PK1 cells (Homo sapiens, UniProt P23975); experiment: [125I]IPT competition binding, LLC-NET membrane homogenates
T4 construct: host or cells: LLC-PK1 (LLC-NET)
T4 sequence (P23975 whole entry): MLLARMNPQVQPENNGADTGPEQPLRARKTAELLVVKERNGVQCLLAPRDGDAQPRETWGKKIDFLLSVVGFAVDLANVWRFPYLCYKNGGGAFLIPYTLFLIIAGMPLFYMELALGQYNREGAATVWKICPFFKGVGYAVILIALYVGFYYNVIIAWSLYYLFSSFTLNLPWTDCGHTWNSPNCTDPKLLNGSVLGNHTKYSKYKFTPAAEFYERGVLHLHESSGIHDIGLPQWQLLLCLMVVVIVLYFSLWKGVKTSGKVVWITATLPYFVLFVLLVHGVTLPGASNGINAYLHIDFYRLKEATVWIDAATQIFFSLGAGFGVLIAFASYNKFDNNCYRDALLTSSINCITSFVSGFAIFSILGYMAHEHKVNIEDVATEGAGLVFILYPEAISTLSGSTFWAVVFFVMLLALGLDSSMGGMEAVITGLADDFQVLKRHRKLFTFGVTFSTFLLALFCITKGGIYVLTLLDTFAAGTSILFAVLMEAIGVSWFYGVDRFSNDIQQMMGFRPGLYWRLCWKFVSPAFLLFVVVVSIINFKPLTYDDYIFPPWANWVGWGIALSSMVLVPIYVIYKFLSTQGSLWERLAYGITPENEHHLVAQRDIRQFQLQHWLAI
Description: as §1

SERT [7] = biological target: T1, SERT; set-up: The frontal cortex of rat brain were dissected and homogenized in 30 volumes of buffer; from tissue; host or cells: rat frontal cortex membrane homogenates (male Sprague-Dawley rats, control and PCA-lesioned); conditions: Kung et al. 1992, cited from earlier work
[8] = Partition coefficient octanol/buffer; format: physicochemical; conditions: 1-octanol/pH 7 buffer
[9] = [125I]IPT ligand, LLC-PK1 membranes, read-out: Inhibition constant (Ki) SERT
[10] = [125I]IPT ligand, LLC-PK1 membranes, read-out: Inhibition constant (Ki) DAT
[11] = [125I]IPT ligand, LLC-PK1 membranes, read-out: Inhibition constant (Ki) NET
[12] = 0.2 nM [125I]IDAM, rat frontal cortical homogenate, read-out: Ki for inhibition of [125I]IDAM binding

T1 sequence (P31652 whole entry): as the sequence (P31652 whole entry) above

COC(=O)C(c1ccccc1)C1CCCCN1 (stereo not shown) [methylphenidate]
effect of pretreatment on specific binding of [125I]IDAM in rat brain regions (SERT [1]): no effect | Ki (SERT [2]): > 1000 nM | Ki for inhibition of [125I]IDAM binding (SERT [2]; 0.2 nM [125I]IDAM, rat frontal cortical homogenate): much less potent

CN(C)Cc1cc(N)ccc1Cc1ccccc1 [K99034]
Ki [3, 9]: 35 ± 2.5 nM

CNCc1ccccc1Sc1ccc(I)cc1CO [K99032]
Ki [3, 9]: < 0.01 nM

CN(C)Cc1ccccc1Oc1ccc([125I])cc1CO [[^125I]ODAM, 5-[123-Iodo or 125-iodo]-2-(2-dimethylaminomethylphenoxy)-benzyl alcohol]
% dose/organ BLOOD ([4]; 2 min): 3.009 ± 0.212 % dose/organ | % dose/organ BRAIN ([4]; 2 min): 2.033 ± 0.087 % dose/organ | % dose/organ THYROID ([4]; 2 min): 0.080 ± 0.019 % dose/organ | Regional brain distribution (ratio/CB) CEREBELLUM ([4]; 2 min): 1.000 | Regional brain distribution (ratio/CB) CORTEX ([4]; 2 min): 1.436 | Regional brain distribution (ratio/CB) HIPPOCAMPUS ([4]; 2 min): 0.983 | Regional brain distribution (ratio/CB) HYPOTHALAMUS ([4]; 2 min): 1.221 | Regional brain distribution (ratio/CB) STRIATUM ([4]; 2 min): 0.906 | % dose/organ BLOOD ([4]; 30 min): 3.517 ± 0.504 % dose/organ | % dose/organ BRAIN ([4]; 30 min): 1.489 ± 0.146 % dose/organ | % dose/organ THYROID ([4]; 30 min): 0.039 ± 0.006 % dose/organ | Regional brain distribution (ratio/CB) CEREBELLUM ([4]; 30 min): 1.000 | Regional brain distribution (ratio/CB) CORTEX ([4]; 30 min): 1.771 | Regional brain distribution (ratio/CB) HIPPOCAMPUS ([4]; 30 min): 1.563 | Regional brain distribution (ratio/CB) HYPOTHALAMUS ([4]; 30 min): 1.860 | Regional brain distribution (ratio/CB) STRIATUM ([4]; 30 min): 1.590 | % dose/organ BLOOD ([4]; 60 min): 3.296 ± 0.373 % dose/organ | % dose/organ BRAIN ([4]; 60 min): 0.785 ± 0.231 % dose/organ | % dose/organ THYROID ([4]; 60 min): 0.028 ± 0.005 % dose/organ | Regional brain distribution (ratio/CB) CEREBELLUM ([4]; 60 min): 1.000 | Regional brain distribution (ratio/CB) CORTEX ([4]; 60 min): 1.690 | Regional brain distribution (ratio/CB) HIPPOCAMPUS ([4]; 60 min): 1.791 | Regional brain distribution (ratio/CB) HYPOTHALAMUS ([4]; 60 min): 1.858 | Regional brain distribution (ratio/CB) STRIATUM ([4]; 60 min): 1.605 | % dose/organ BLOOD ([4]; 120 min): 1.868 ± 0.186 % dose/organ | % dose/organ BRAIN ([4]; 120 min): 0.267 ± 0.066 % dose/organ | % dose/organ THYROID ([4]; 120 min): 0.034 ± 0.006 % dose/organ | Regional brain distribution (ratio/CB) CEREBELLUM ([4]; 120 min): 1.000 | Regional brain distribution (ratio/CB) CORTEX ([4]; 120 min): 1.672 | Regional brain distribution (ratio/CB) HIPPOCAMPUS ([4]; 120 min): 1.846 | Regional brain distribution (ratio/CB) HYPOTHALAMUS ([4]; 120 min): 1.630 | Regional brain distribution (ratio/CB) STRIATUM ([4]; 120 min): 1.617 | % dose/organ BLOOD ([4]; 240 min): 0.976 ± 0.073 % dose/organ | % dose/organ BRAIN ([4]; 240 min): 0.065 ± 0.017 % dose/organ | % dose/organ THYROID ([4]; 240 min): 0.041 ± 0.038 % dose/organ | Regional brain distribution (ratio/CB) CEREBELLUM ([4]; 240 min): 1.000 | Regional brain distribution (ratio/CB) CORTEX ([4]; 240 min): 1.322 | Regional brain distribution (ratio/CB) HIPPOCAMPUS ([4]; 240 min): 1.648 | Regional brain distribution (ratio/CB) HYPOTHALAMUS ([4]; 240 min): 1.343 | Regional brain distribution (ratio/CB) STRIATUM ([4]; 240 min): 1.539

CN(C)Cc1ccccc1Sc1ccc(Br)cc1[N+](=O)[O-] [K110]
Ki [5, 10]: 14700 ± 2200 nM | Ki [3, 9]: 1.9 nM

CN(C)Cc1ccccc1Sc1ccc(Br)cc1NO [K99025]
Ki [6, 11]: 165 ± 9 nM | Ki [3, 9]: ~0.075 nM

CCOCc1cc(I)ccc1Sc1ccccc1CN(C)C [K119]
Ki [5, 10]: 11100 ± 1100 nM | Ki [3, 9]: 0.234 nM

CNCCC(Oc1ccc(I)cc1C)c1ccccc1 (stereo not shown) [4-I-tomoxetine]
Kd (SERT [7]): 0.04 nM | nonspecific binding (SERT [7]; at Kd value): > 25%

CN(C)Cc1ccccc1Sc1ccc(Br)cc1CO [brominated derivative, 5-bromo-2-[[2-2[(dimethylamino)methyl]phenyl]thio]benzyl alcohol]
Ki [5, 10]: > 10000 nM | Ki [6, 11]: 35.4 nM | Ki [3, 9]: < 0.1 nM

CN(C)Cc1ccccc1Sc1ccc(I)cc1N [K99028]
Ki [6, 11]: 699 ± 80 nM | Ki [3]: ~0.013 nM

CN(C)Cc1ccccc1Oc1ccc(I)cc1 [K99039]
Ki [3, 9]: < 0.01 nM

CN(C)Cc1ccccc1Sc1ccc(Br)cc1N [K99026]
Ki [6]: 214 ± 68 nM | Ki [3, 9]: ~0.022 nM

CN(C)Cc1ccccc1Sc1ccccc1N [K109]
Ki [5, 10]: 1700 ± 600 nM | Ki [3, 9]: 0.038 ± 0.01 nM

Cc1ccccc1Nc1ccc(I)cc1CN(C)C [K99037]
Ki [3, 9]: 27.3 ± 6.9 nM

CN(C)Cc1ccccc1Sc1ccc(Cl)cc1CO [K99033]
Ki [3]: < 0.01 nM

CCN1CCC[C@H]1CNC(=O)c1c(O)c(Cl)cc(Cl)c1OC [Raclopride, raclopride]
effect of pretreatment on specific binding of [125I]IDAM in rat brain regions (SERT [1]): no effect | Ki (SERT [2]; [12]): 669 nM

COCc1cc(I)ccc1Sc1ccccc1CN(C)C [K104]
Ki [5]: 11000 ± 200 nM | Ki [6]: 155 ± 18.7 nM | Ki [3]: 0.02 nM

Cc1ccccc1Nc1ccc(N)cc1CN(C)C [K99036]
Ki [3, 9]: 139 ± 15 nM

CN(C)Cc1ccccc1Oc1ccc(I)cc1CO [ODAM, 5-Iodo-2-(2-dimethylaminomethylphenoxy)-benzyl alcohol]
Ki [5, 10]: 3900 ± 700 nM | Ki [3, 9]: 0.12 nM | % dose/organ BRAIN ([4]; 2 min): 2.03 % dose/organ | Regional brain distribution (ratio/CB) HYPOTHALAMUS ([4]; 2 min): 1.22 | % dose/organ BRAIN ([4]; 30 min): 1.49 % dose/organ | Regional brain distribution (ratio/CB) HYPOTHALAMUS ([4]; 30 min): 1.86 | % dose/organ BRAIN ([4]; 60 min): 0.79 % dose/organ | Regional brain distribution (ratio/CB) HYPOTHALAMUS ([4]; 60 min): 1.86 | % dose/organ BRAIN ([4]; 120 min): 0.27 % dose/organ | Regional brain distribution (ratio/CB) HYPOTHALAMUS ([4]; 120 min): 1.63 | % dose/organ BRAIN ([4]; 240 min): 0.07 % dose/organ | Regional brain distribution (ratio/CB) HYPOTHALAMUS ([4]; 240 min): 1.34 | Ki (SERT [2]; [12]): 2.88 ± 0.88 nM

CCCOCc1cc(I)ccc1Sc1ccccc1CN(C)C [K120]
Ki [5, 10]: 9300 ± 200 nM | Ki [6, 11]: 382 ± 46 nM | Ki [3, 9]: 0.33 ± 0.06 nM

CN(C)Cc1ccccc1Sc1ccc(I)cc1CO [IDAM, 5-iodo-2-[[2-2[(dimethylamino)methyl]phenyl]thio]benzyl alcohol]
Ki [5, 10]: > 10000 nM | Ki [3]: < 0.1 nM | selectivity for SERT ([3]; SERT versus DAT and NET): more than 1,000 fold | effect of pretreatment on specific binding of [125I]IDAM in rat brain regions (SERT [1]): dramatically reduced | partition coefficient [8]: 473 | Ki (SERT [2]): 0.08 nM

CC(=O)OCc1cc(Br)ccc1Sc1ccccc1CN(C)C [K68]
Ki [5, 10]: 20.4 ± 1.55 nM | Ki [6, 11]: 420 ± 62.5 nM | Ki [3, 9]: 2.42 ± 0.06 nM

CN(C)Cc1ccccc1Sc1ccc(Br)cn1 [K102]
Ki [3, 9]: > 1000 nM
